This experiment relates to bacterial strain LF82 binding to the glycoprotein BSA-(Mannose)3. Briefly: Bacterial Binding Assay (BBA). The experiment is classed as cell-based, Escherichia coli. The following applies: read-out: Bacterial Binding Assay IC50, LF82/Luciferase strain binding to BSA-(Man)3 coated plates, luminescence. The source says: The purpose of the Bacterial Binding Assay (BBA) is to determine the inhibition activity of
selective FimH antagonists on the bacterial strain LF82 binding to the glycoprotein BSA-(Mannose)3.
Below is a list of the Materials used to run the BBA are described below. • 1. LB broth: Supplier: Gibco, #10855 • 2. D-PBS: Supplier: Wisent, #311-425-CL • 3. LB agar plates • 4. 96-well black plate (high binding): Supplier: Costar, #3925 • 5. TopSeal™-A adhesive sealing films; Supplier PerkinElmer, #6005185 • 6. Carbonate-bicarbonate buffer pH 9.6 tablets, Supplier: Medicago, #09-8922-24 • 7. Water, Supplier: Gibco, #15230-162 • 8. Bovine serum albumin (BSA): Supplier: Sigma, #A-7888 • 9. (Man)3-BSA (α1-3, α1-6 Mannotriose-BSA, 1 mg), V-Labs, #NGP1336, lot #HGDX37-169-1 • 10. Tween 20: Supplier: Sigma, #P9416 • 11. Bright-Glo Luciferase Assay System: Supplier: Promega, #E2610 • 12. LF82/Luciferase strain: Invasive ability of an Escherichia coli strain isolated from the ileal mucosa of a patient with Crohn ? disease. Boudeau J, Glasser A L, Masseret E, Joly B, Darfeuille-Michaud A, Infect Immun. 1999, 67(9), 4499-509
Solutions and buffers used to run the BBA are described below. • 1. 0.04M carbonate-bicarbonate buffer (coating buffer) • 2. 40 μg/mL BSA-(Man)3: Dissolve 1 mg of (Man)3-BSA in 25 mL of water. • 3. 4000 μg/mL BSA • 4. 40 μg/mL BSA • 5. 1 μg/mL BSA-(Man)3: 150 μL of 40 μg/mL BSA-(Man)3+5.85 mL of 40 μg/mL BSA • 6. 0.5 μg/mL BSA-(Man)3 in 0.02M carbonate-bicarbonate buffer. • 7. 20 μg/mL BSA in 0.02M carbonate-bicarbonate buffer • 8. Blocking buffer (2% BSA/DPBS): 1 g of BSA in 50 mL D-PBS • 9. 2× binding buffer (0.2% BSA/D-PBS): 5 mL of blocking buffer+45 mL D-PBS. • 10. Washing buffer (D-PBS/0.01% Tween 20): 10 μL of Tween 20 in 100 mL D-PBS. • 11. 1× Bright-Glo Luciferase substrate: Dilute 1:1 the Bright-Glo Luciferase Assay System with D-PBS The experimental protocol to run the BBA is described below.
Overnight culture of LF82/Luciferase strain: Into two Falcon 50 mL tubes, add 20 mL of LB+20 μL of 50 mg/mL Kanamycin and inoculate with a loop from glycerol stock of the LF82/Luciferase strain. Incubate overnight at 37° C. with no shaking.
Glycoprotein coating of 96-well plates: Add 100 μL/well of 0.5-2 μg/mL BSA-(Man)3. 20 μg/mL BSA is used as the control background. Seal plate using an adhesive sealing film and incubate overnight at room temperature. Wash the 96-well plate three times with 150 μL/well of D-PBS, add 170 μL/well of blocking solution and incubate 45 min (minimum) at room temperature.
Preparation of bacterial suspension: Mix the two cultures tubes (40 mL) and perform a 1:10 dilution in LB (900 μl LB+100 μl culture. Measure optical density (OD) of the bacterial cultures. OD1 ˜5×10^8 cells/mL. Centrifuge LF82 culture for 20 min at 3500 rpm at room temperature. Re-suspend bacterial pellet in D-PBS and centrifuge again for 20 min at 3500 rpm. Re-suspend bacterial pellet in D-PBS to obtain a bacterial concentration of 2×10^9 bacteria/mL. Dilute 1/10 in D-PBS to obtain a final bacterial concentration of 2×10^8 bacteria/mL (=107 bacteria/50 μL). Perform 1/10 serial dilutions in LB of each bacterial suspension, plate 10 μL of dilutions on LB agar plates (final dilutions of 10^−7) and incubate overnight at 37° C. and count CFUs to determine the actual bacteria density in the assay.
Bacterial binding assay: Add 147 μL 2× binding buffer to compound plate (containing 3 μL of compound). After blocking step is performed (at least 45 min), wash plates three times with 200 μL/well of D-PBS. With a 100 μL multichannel manual pipettor, add 50 µL/well of compound diluted in 2× binding buffer. With a 100 μL multichannel manual pipettor, add 50 μL/well of bacterial suspension. Agitate at slow speed for 1 min and incubate 40-75 min at room temperature. Wash 5 times with 150 μL/well of washing buffer and then once with D-PBS. Add 100 μL/well of 1× Bright-Glo Luciferase substrate. […]
As for `CC1(C)c2cc(C#C[C@H]3O[C@H](CO)[C@@H](O)[C@H](O)[C@@H]3O)ccc2-c2ccc(C#C[C@H]3O[C@H](CO)[C@@H](O)[C@H](O)[C@@H]3O)cc21` [Compound 120, (2R,3S,4R,5S,6R)-2-[2-[9,9-dimethyl-7-[2-[(2R,3S,4R,5S,6R)-3,4,5-trihydroxy-6-(hydroxymethyl)tetrahydropyran-2-yl]ethynyl]fluoren-2-yl]ethynyl]-6-(hydroxymethyl)tetrahydropyran-3,4,5-triol], the IC50 worked out at 1.2 nM. Take `OC[C@H]1O[C@H](C#Cc2cc(-c3ccccc3)c(C#C[C@H]3O[C@H](CO)[C@@H](O)[C@H](O)[C@@H]3O)cc2-c2ccccc2)[C@@H](O)[C@@H](O)[C@@H]1O` [Compound 81, (2R,3S,4R,5S,6R)-2-[2-[2,5-dipheny1-4[2-[(2R,3S,4R,5S,6R)-3,4,5-trihydroxy-6-(hydroxymethyl)tetrahydropyran-2-yl]ethynyl]phenyl]ethynyl]-6-(hydroxymethyl)tetrahydropyran-3,4,5-triol]: the IC50 amounted to 9 nM. The figure for `CCC(=O)c1c(C#C[C@H]2O[C@H](CO)[C@@H](O)[C@H](O)[C@@H]2O)ccc2c1C1(CCNCC1)c1cc(C#C[C@H]3O[C@H](CO)[C@@H](O)[C@H](O)[C@@H]3O)ccc1-2` [Compound 223, 1-[2,7-bis[2-[(2R,3S,4R,5S,6R)-3,4,5-trihydroxy-6-(hydroxymethyl)tetrahydropyran-2-yl]ethynyl]spiro[fluorene-9,4piperidine]-1-yl]propan-1-one] is 0.06 nM; for `OC[C@H]1O[C@H](C#Cc2ccc(C#C[C@H]3O[C@H](CO)[C@@H](O)[C@H](O)[C@@H]3O)c(F)c2)[C@@H](O)[C@@H](O)[C@@H]1O` [Compound 105, (2R,3S,4R,5S,6R)-2-[2-[3-fluoro-4-[2-[(2R,3S,4R,5S,6R)-3,4,5-trihydroxy-6-(hydroxymethyl)tetrahydropyran-2-yl]ethynyl]phenyl]ethynyl]-6-(hydroxymethyl)tetrahydropyran-3,4,5-triol] it is 46 nM.

On to `OC[C@H]1O[C@H](C#Cc2csc3c(C#C[C@H]4O[C@H](CO)[C@@H](O)[C@H](O)[C@@H]4O)csc23)[C@@H](O)[C@@H](O)[C@@H]1O` [Compound 132, (2R,3S,4R,5S,6R)-2-(hydroxymethyl)-6-[2-[6-[2-[(2R,3S,4R,5S,6R)-3,4,5-trihydroxy-6-(hydroxymethyl)tetrahydropyran-2-yl]ethynyl]thieno[3,2-b]thiophen-3-yl]ethynyl]tetrahydropyran-3,4,5-triol], for which the IC50 turned out to be 52 nM. The figure for `O=C(c1ccno1)c1c(C#C[C@H]2O[C@H](CO)[C@@H](O)[C@H](O)[C@@H]2O)ccc2c1C1(CCNCC1)c1cc(C#C[C@H]3O[C@H](CO)[C@@H](O)[C@H](O)[C@@H]3O)ccc1-2` [Compound 232, [2,7-bis[2-[(2R,3S,4R,5S,6R)-3,4,5-trihydroxy-6-(hydroxymethyl)tetrahydropyran-2-yl]ethynyl]spiro[fluorene-9,4piperidine]-1yl]-isoxazol-5-yl-methanone] is 0.04 nM; for `OC[C@H]1O[C@H](C#Cc2ccc(C#C[C@H]3O[C@H](CO)[C@@H](O)[C@H](O)[C@@H]3O)c(Cl)c2Cl)[C@@H](O)[C@@H](O)[C@@H]1O` [Compound 75] it is 76 nM; for `COCc1cc(C#C[C@H]2O[C@H](CO)[C@@H](O)[C@H](O)[C@@H]2O)c(COC)cc1C#C[C@H]1O[C@H](CO)[C@@H](O)[C@H](O)[C@@H]1O` [Compound 89, (2R,3S,4R,5S,6R)-2-[2-[2,5-bis(methoxymethyl)-4-[2-[(2R,3S,4R,5S,6R)-3,4,5-trihydroxy-6-(hydroxymethyl)tetrahydropyran-2-yl]ethynyl]phenyl]ethynyl]-6-(hydroxymethyl)tetrahydropyran-3,4,5-triol] it is 82 nM. The figure for `OC[C@H]1O[C@H](C#Cc2ccc(C#C[C@H]3O[C@H](CO)[C@@H](O)[C@H](O)[C@@H]3O)c(-c3ccccc3)c2)[C@@H](O)[C@@H](O)[C@@H]1O` [Compound 77, (2R,3S,4R,5S,6R)-2-(hydroxymethyl)-6-[2-[3-phenyl-4-[2-[(2R,3S,4R,5S,6R)-3,4,5-trihydroxy-6-(hydroxymethyl)tetrahydropyran-2-yl]ethynyl]phenyl]ethynyl]tetrahydropyran-3,4,5-triol] is 4 nM; for `OCCC1(O)c2cc(C#C[C@H]3O[C@H](CO)[C@@H](O)[C@H](O)[C@@H]3O)ccc2-c2ccc(C#C[C@H]3O[C@H](CO)[C@@H](O)[C@H](O)[C@@H]3O)cc21` [Compound 216, (2R,3S,4R,5S,6R)-2-[2-[9-hydroxy-9-(2-hydroxyethyl)-7-[2-[(2R,3S,4R,5S,6R)-3,4,5-trihydroxy-6-(hydroxymethyl)tetrahydropyran-2-yl]ethynyl]fluoren-2-yl]ethynyl]-6-(hydroxymethyl)tetrahydropyran-3,4,5-triol] it is 9.9 nM. Take `CCOC(=O)c1c(C#C[C@H]2O[C@H](CO)[C@@H](O)[C@H](O)[C@@H]2O)ccc2c1C1(CCNCC1)c1cc(C#C[C@H]3O[C@H](CO)[C@@H](O)[C@H](O)[C@@H]3O)ccc1-2` [Compound 209, ethyl 2,7-bis[2-[(2R,3S,4R,5S,6R)-3,4,5-trihydroxy-6-(hydroxymethyl)tetrahydropyran-2-yl]ethynyl]spiro[fluorene-9,4 piperidine]-1 carboxylate]: the IC50 is 0.07 nM. As to `CCCCc1cc(C#C[C@H]2O[C@H](CO)[C@@H](O)[C@H](O)[C@@H]2O)ccc1C#C[C@H]1O[C@H](CO)[C@@H](O)[C@H](O)[C@@H]1O` [Compound 72], the IC50 was determined as 18 nM. As to `CC1(C(=O)c2c(C#C[C@H]3O[C@H](CO)[C@@H](O)[C@H](O)[C@@H]3O)ccc3c2C2(CCNCC2)c2cc(C#C[C@H]4O[C@H](CO)[C@@H](O)[C@H](O)[C@@H]4O)ccc2-3)CC1` [Compound 225, [2,7-bis[2-[(2R,3S,4R,5S,6R)-3,4,5-trihydroxy-6-(hydroxymethyl)tetrahydropyran-2-yl]ethynyl]spiro[fluorene-9,4piperidine]-1yl]-(1-methylcyclopropyl)methanone], the IC50 was determined as 1.2 nM.

Turning to `O=C(c1c(C#C[C@H]2O[C@H](CO)[C@@H](O)[C@H](O)[C@@H]2O)ccc2c1C1(CCNCC1)c1cc(C#C[C@H]3O[C@H](CO)[C@@H](O)[C@H](O)[C@@H]3O)ccc1-2)[C@@H]1CCCO1` [Compound 242, [2,7-bis[2-[(2R,3S,4R,5S,6R)-3,4,5-trihydroxy-6-(hydroxymethyl)tetrahydropyran-2-yl]ethynyl]spiro[fluorene-9,4piperidine]-1yl]-[(2S)-tetrahydrofuran-2-yl]methanone], the IC50 was 0.18 nM. For `OC[C@H]1O[C@H](C#Cc2cc3cc(C#C[C@H]4O[C@H](CO)[C@@H](O)[C@H](O)[C@@H]4O)sc3s2)[C@@H](O)[C@@H](O)[C@@H]1O` [Compound 123, (2R,3S,4R,5S,6R)-2-(hydroxymethyl)-6-[2-[5-[2-[(2R,3S,4R,5S,6R)-3,4,5-trihydroxy-6-(hydroxymethyl)tetrahydropyran-2-yl]ethynyl]thieno[2,3-b]thiophen-2-yl]ethynyl]tetrahydropyran-3,4,5-triol] the value was 41 nM.

(Values after patent US11634447B2 (priority 2012, dated 2023).)
